From patent publication US11324717B2, “Microbial carotenoids affecting gut microbial composition” (Microbial Research Management Health NV, priority 2016, dated 2022)

How the values were obtained:
gut microbiota = experiment: Gut microbiome composition (fecal DGGE cluster analysis) in rats on high-fat diet; type: in vivo, Sprague-Dawley rats; settings: daily oral gavage in peanut oil for 8 weeks, carotenoids 10-50 pg/d, lutein 25 μg/d, vs HF controls
From the text: To evaluate the effect of carotenoids from PD01 on gut microbiome composition in vivo, male Sprague-Dawley rats of 90 days of age were daily dosed for 8 weeks with carotenoids from PD01, either as carotenoid extract or as carotenoids contained in spores or vegetative cells. The experiment consisted of administration of a high-fat (HF) diet to the animals, which mimics a standardized western diet and is associated with the development of metabolic syndrome within 8 weeks of administration. In addition to a HF control group, separate groups of animals received the HF diet in combination with one of the carotenoid formulations from PD01. To do this, the carotenoid formulations were suspended in peanut oil and given by oral gavage to the rats in addition to the HF diet. The corresponding daily dose of carotenoids was in the range of […]. A control group receiving a standard low-fat (LF) diet was included to allow assessment of the specific effect of the HF diet on the gut microbiome composition. Additionally, one extra HF group was included, receiving the plant-derived carotenoid lutein, in the same amount as the bacterial carotenoids (i.e. 25 μg/d). This allows comparison of the effect of bacterial vs. plant-derived carotenoids on the gut microbiome composition. To monitor the effects of the different formulations on the gut microbiota, DGGE profiles were prepared. […]

[1] = system: Caco-2/THP1XB co-cultures; experiment: Gut barrier function: TEER in Caco-2/THP1XB co-cultures (transwell); type: cell-based; settings: 18 h after treatment of Caco-2/THP1XB co-cultures
From the text: The effect on the host of the carotenoids from PD01 (derived from either vegetative cells or spores) on gut barrier function, was studied in Caco-2/THP1XB co-cultures, according to methods described in Possemiers et al. (2013, J Agric Food Chem 61). Endpoint of the measurement was a change from control in the transepithelial electrical resistance (TEER) in a transwell setup.

| SMILES | gut microbiome composition (DGGE cluster analysis of fecal samples) (gut microbiota) | transepithelial electrical resistance (TEER), change from control [1] |
| --- | --- | --- |
| CC1=C[C@H](O)CC(C)(C)[C@H]1/C=C/C(C)=C/C=C/C(C)=C/C=C/C=C(C)/C=C/C=C(C)/C=C/C1=C(C)C[C@@H](O)CC1(C)C [lutein] | clustered together with those of the HF controls |  |
| Cc1c(C)c2c(c(C)c1O)CC[C@@](C)(CCC[C@H](C)CCC[C@H](C)CCCC(C)C)O2 [α-tocopherol] |  | did not induce protection |
